Laboratory results as given in PubChem BioAssay AID1259407 (Chemical Carcinogenesis Research Information System (CCRIS), 2018).
Calls of active or inactive are those of the source. The rule behind the calls is not given here.

Test system: CCRIS mutagenicity, Ames/micronucleus/aberration tests
Assay: CCRIS mutagenicity studies
[1] = Test System: AMES SALMONELLA TYPHIMURIUM, Strain/Indicator: TA98, Metabolic Activation: HAMSTER, LIVER, S-9, AROCLOR 1254 (30%), Method: PREINCUBATION
[2] = Test System: AMES SALMONELLA TYPHIMURIUM, Strain/Indicator: TA98, Metabolic Activation: NONE, Method: PREINCUBATION
[3] = Test System: AMES SALMONELLA TYPHIMURIUM, Strain/Indicator: TA100, Metabolic Activation: NONE, Method: PREINCUBATION
[4] = Test System: AMES SALMONELLA TYPHIMURIUM, Strain/Indicator: TA98, Metabolic Activation: NONE, Method: STANDARD PLATE
[5] = Test System: AMES SALMONELLA TYPHIMURIUM, Strain/Indicator: TA100, Metabolic Activation: NONE, Method: STANDARD PLATE
[6] = Test System: AMES SALMONELLA TYPHIMURIUM, Strain/Indicator: TA102, Metabolic Activation: NONE, Method: STANDARD PLATE
[7] = Test System: AMES SALMONELLA TYPHIMURIUM, Strain/Indicator: TA1535, Metabolic Activation: NONE, Method: STANDARD PLATE
[8] = Test System: AMES SALMONELLA TYPHIMURIUM, Strain/Indicator: TA1537, Metabolic Activation: NONE, Method: STANDARD PLATE

Measured: mutagenic call

Nc1cccc(O)c1
active: Test System: AMES SALMONELLA TYPHIMURIUM, Strain/Indicator: TA98, Metabolic Activation: HAMSTER, LIVER, S-9, AROCLOR 1254 (5 OR 10%), Method: PREINCUBATION active; positive
inactive: Test System: AMES SALMONELLA TYPHIMURIUM, Strain/Indicator: TA97, Metabolic Activation: HAMSTER, LIVER, S-9, AROCLOR 1254 (10%), Method: PREINCUBATION inactive; negative | Test System: AMES SALMONELLA TYPHIMURIUM, Strain/Indicator: TA97, Metabolic Activation: NONE, Method: PREINCUBATION inactive; negative | Test System: AMES SALMONELLA TYPHIMURIUM, Strain/Indicator: TA97, Metabolic Activation: RAT, LIVER, S-9, AROCLOR 1254 (10%), Method: PREINCUBATION inactive; negative | [1] inactive; negative | Test System: AMES SALMONELLA TYPHIMURIUM, Strain/Indicator: TA98, Metabolic Activation: NONE inactive; negative | [2] inactive; negative | Test System: AMES SALMONELLA TYPHIMURIUM, Strain/Indicator: TA98, Metabolic Activation: RAT, LIVER, S-9, AROCLOR 1254 (5, 10 OR 30%), Method: PREINCUBATION inactive; negative | Test System: AMES SALMONELLA TYPHIMURIUM, Strain/Indicator: TA98, Metabolic Activation: S-9 inactive; negative | Test System: AMES SALMONELLA TYPHIMURIUM, Strain/Indicator: TA100, Metabolic Activation: HAMSTER, LIVER, S-9, AROCLOR 1254 (10%), Method: PREINCUBATION inactive; negative | [3] inactive; negative | Test System: AMES SALMONELLA TYPHIMURIUM, Strain/Indicator: TA100, Metabolic Activation: RAT, LIVER, S-9, AROCLOR 1254 (10%), Method: PREINCUBATION inactive; negative | Test System: AMES SALMONELLA TYPHIMURIUM, Strain/Indicator: TA1535, Metabolic Activation: HAMSTER, LIVER, S-9, AROCLOR 1254 (10%), Method: PREINCUBATION inactive; negative | Test System: AMES SALMONELLA TYPHIMURIUM, Strain/Indicator: TA1535, Metabolic Activation: NONE, Method: PREINCUBATION inactive; negative | Test System: AMES SALMONELLA TYPHIMURIUM, Strain/Indicator: TA1535, Metabolic Activation: RAT, LIVER, S-9, AROCLOR 1254 (10%), Method: PREINCUBATION inactive; negative

CC(/C=C(/C#N)c1ccc(Br)cc1)C(c1ccccc1)C(C#N)c1ccc(Br)cc1 (centres undefined)
inactive: Test System: AMES SALMONELLA TYPHIMURIUM, Strain/Indicator: TA97A, Metabolic Activation: NONE, Method: STANDARD PLATE inactive; negative

Cc1ccccc1-c1nc2ccccc2o1
inactive: [4] inactive; negative | Test System: AMES SALMONELLA TYPHIMURIUM, Strain/Indicator: TA98, Metabolic Activation: S-9, Method: STANDARD PLATE inactive; negative

CC12CCC(=O)NC1=CCC1C2CCC2(C)C(OC(=O)CCCc3ccc(N(CCCl)CCCl)cc3)CCC12 (centres undefined)
active: [5] active; positive | Test System: AMES SALMONELLA TYPHIMURIUM, Strain/Indicator: TA100, Metabolic Activation: RAT, LIVER, S-9, AROCLOR 1254, Method: STANDARD PLATE active; positive | [7] active; positive | Test System: AMES SALMONELLA TYPHIMURIUM, Strain/Indicator: TA1535, Metabolic Activation: RAT, LIVER, S-9, AROCLOR 1254, Method: STANDARD PLATE active; positive
inactive: [4] inactive; negative | Test System: AMES SALMONELLA TYPHIMURIUM, Strain/Indicator: TA98, Metabolic Activation: RAT, LIVER, S-9, AROCLOR 1254, Method: STANDARD PLATE inactive; negative | [6] inactive; negative | Test System: AMES SALMONELLA TYPHIMURIUM, Strain/Indicator: TA102, Metabolic Activation: RAT, LIVER, S-9, AROCLOR 1254, Method: STANDARD PLATE inactive; negative | [8] inactive; negative | Test System: AMES SALMONELLA TYPHIMURIUM, Strain/Indicator: TA1537, Metabolic Activation: RAT, LIVER, S-9, AROCLOR 1254, Method: STANDARD PLATE inactive; negative

CC(Br)Br
inactive: [6] inactive; negative | Test System: AMES SALMONELLA TYPHIMURIUM, Strain/Indicator: TA2638, Metabolic Activation: NONE, Method: STANDARD PLATE inactive; negative | Test System: E. COLI, Strain/Indicator: WP2 (PKM101), Metabolic Activation: NONE, Method: STANDARD PLATE inactive; negative | Test System: E. COLI, Strain/Indicator: WP2 UVRA (PKM101), Metabolic Activation: NONE, Method: STANDARD PLATE inactive; negative

O=S=O
active: End Point: IN VIVO CHROMOSOMAL ABERRATIONS, Test System: BONE MARROW CELLS, Species: MOUSE, Strain/Sex: KUNMING/MALE, FEMALE, Route: INHALATION active; positive; exposure up to 5 d not effective

C/C(C=O)=C(/Cl)C(=O)O
active: [2] active; positive | [3] active; positive | Test System: AMES SALMONELLA TYPHIMURIUM, Strain/Indicator: TA104, Metabolic Activation: NONE, Method: PREINCUBATION active; positive

COc1ccc(CN(C)N=O)cc1
inactive: Test System: AMES SALMONELLA TYPHIMURIUM, Strain/Indicator: TA1535, Metabolic Activation: HAMSTER, LIVER, S-9, AROCLOR 1254, Method: STANDARD PLATE inactive; negative | [7] inactive; negative

CCC(Cl)[N+](=O)[O-] (centres undefined)
active: [1] active; positive | [2] active; positive | Test System: AMES SALMONELLA TYPHIMURIUM, Strain/Indicator: TA98, Metabolic Activation: RAT, LIVER, S-9, AROCLOR 1254 (30%), Method: PREINCUBATION active; positive | Test System: AMES SALMONELLA TYPHIMURIUM, Strain/Indicator: TA100, Metabolic Activation: HAMSTER, LIVER, S-9, AROCLOR 1254 (30%), Method: PREINCUBATION active; positive | [3] active; positive | Test System: AMES SALMONELLA TYPHIMURIUM, Strain/Indicator: TA100, Metabolic Activation: RAT, LIVER, S-9, AROCLOR 1254 (30%), Method: PREINCUBATION active; positive

CN(C)CCNC(=O)c1cccc2[nH]c(-c3ccccc3)nc12
active: [8] active; positive

Cc1c(N)ccc(N=Nc2ccccc2)c1N
active: Test System: AMES SALMONELLA TYPHIMURIUM, Strain/Indicator: TA100, Metabolic Activation: HUMAN, LIVER, S-9, Method: PREINCUBATION active; positive | Test System: AMES SALMONELLA TYPHIMURIUM, Strain/Indicator: TA100, Metabolic Activation: RAT, LIVER, S-9, BETA-NAPHTHOFLAVONE, Method: PREINCUBATION active; positive | Test System: AMES SALMONELLA TYPHIMURIUM, Strain/Indicator: TA100, Metabolic Activation: RAT, LIVER, S-9, PHENOBARBITAL, Method: PREINCUBATION active; positive | Test System: AMES SALMONELLA TYPHIMURIUM, Strain/Indicator: TA100, Metabolic Activation: RAT, LIVER, S-9, Method: PREINCUBATION active; positive | Test System: UDS RODENT HEPATOCYTES, Strain/Indicator: THY INCORP, Metabolic Activation: NONE, Method: AUTORADIOGRAPHY active; positive

COc1cc(N=Nc2c(Br)cc([N+](=O)[O-])cc2[N+](=O)[O-])c(NC(C)=O)cc1N(CCOC(C)=O)CCOC(C)=O
active: End Point: IN VITRO CHROMOSOMAL ABERRATIONS, Test System: CHL CELLS, Metabolic Activation: NONE active; positive (structural changes)

C=C1[C@@H]2CC[C@H]3[C@]4(C)CCC[C@@](C)(C(=O)O)[C@H]4CC[C@]3(C2)[C@H]1O
inactive: Test System: AMES SALMONELLA TYPHIMURIUM, Strain/Indicator: TM677, Metabolic Activation: RAT, LIVER, S-9, AROCLOR 1254, Method: PREINCUBATION inactive; negative

N#Cc1cccc2c([N+](=O)[O-])cccc12
active: [5] active; positive | Test System: AMES SALMONELLA TYPHIMURIUM, Strain/Indicator: TA100, Metabolic Activation: S-9 MIX, Method: STANDARD PLATE active; positive
